Measured values taken from US9096599B2, “Spiroindoline compounds” (Intervet Inc., priority 2011, dated 2015).
Where two headings read alike, the source gives them in different places.

Test system: Ascaridia galli (L3) and Oesophagostumum dentatum (L3 and L4) larvae
Assay: In vitro anthelmintic larval test, minimum effective concentration by microscopic examination
Type: cell-based
Details: read-out: minimum effective concentration (MEC)
Experimental: C: Biological Examples Efficacy Against Ascaridia galli and Oesophagostomum dentatum
Anthelmintic effects of compounds of this invention (numbers refer to compound numbers in Table I) were tested in vitro using gut-welling larval stages of two parasitic nematode species: Ascaridia galli (intestinal roundworm of chicken), larval stage 3 (“L3”); and Oesophagostumum dentatum (nodular worm of swine), larval stages 3 and 4 (respectively “L3” and “L4”). When conducting these experiments, DMSO-solutions of various concentrations of compounds of this invention were prepared and incubated in 96-well microtiter plates. The parasites were then distributed at 20 larvae per well. The anthelmintic effects were classified by microscopic examination. The microscopic examination included assessing mortality, damage, motility, progression of development, and neutral red uptake by the larvae in comparison to a DMSO-control.

[1] = activity against one or both of the nematodes (A. galli L3; O. dentatum L3, L4), 96-well plates, 20 larvae per well, vs DMSO-control

SMILES	minimal effective concentration [1] [µM]	minimal effective concentration [µM]
Cc1cc(C(=O)N2CC3(CCN(C/C=C/c4ccc(Cl)c(Cl)c4)CC3)c3cc(Sc4ccc(F)cc4)ccc32)ccn1 [Compound 25, [1′-[(E)-3-(3,4-dichlorophenyl)allyl]-5-(4-fluorophenyl)sulfanyl-spiro[indoline-3,4′-piperidine]-1-yl]-(2-methyl-4-pyridyl)methanone]	≤ 50	
Cc1ccc(/C=C/CN2CCC3(CC2)CN(C(=O)c2ccnc(Cl)c2)c2ccc(Sc4ccc(F)cc4)cc23)cc1C [Compound 14, (2-chloro-4-pyridyl)-[1′-[(E)-3-(3,4-dimethylphenyl)allyl]-5-(4-fluorophenyl)sulfanyl-spiro[indoline-3,4′-piperidine]-1-yl]methanone]	≤ 50	
O=C(c1ccnc(Cl)c1)N1CC2(CCN(C/C=C/c3ccc(Cl)cc3Cl)CC2)c2cc(Sc3ccc(F)cc3)ccc21 [Compound 29, (2-chloro-4-pyridyl)-[1′-[(E)-3-(2,4-dichlorophenyl)allyl]-5-(4-fluorophenyl)sulfanyl-spiro[indoline-3,4′-piperidine]-1-yl]methanone]	≤ 50	
Cc1cc(C(=O)N2CC3(CCN(C/C=C/c4ccc(F)c(F)c4)CC3)c3cc(Sc4ccc(F)cc4)ccc32)cc(Cl)n1 [Compound 33, (2-chloro-6-methyl-4-pyridyl)-[1′-[(E)-3-(3,4-difluorophenyl)allyl]-5-(4-fluorophenyl)sulfanyl-spiro[indoline-3,4′-piperidine]-1-yl]methanone]	≤ 50	
Cc1ccc(/C=C/CN2CCC3(CC2)CN(C(=O)c2ccnc(C)c2)c2ccc(Sc4ccc(F)cc4)cc23)c(C)c1 [Compound 22, [1′-[(E)-3-(2,4-dimethylphenyl)allyl]-5-(4-fluorophenyl)sulfanyl-spiro[indoline-3,4′-piperidine]-1-yl]-(2-methyl-4-pyridyl)methanone]	≤ 50	
Cc1ccc(/C=C/CN2CCC3(CC2)CN(C(=O)c2ccnc(C)c2)c2ccc(Sc4ccc(F)cc4)cc23)cc1 [Compound 19, [5-(4-fluorophenyl)sulfanyl-1′-[(E)-3-(p-tolyl)allyl]spiro[indoline-3,4′-piperidine]-1-yl]-(2-methyl-4-pyridyl)methanone]	≤ 50	
Cc1cc(C(=O)N2CC3(CCN(C/C=C/c4ccc(F)cc4)CC3)c3cc(Sc4ccc(F)cc4)ccc32)ccn1 [Compound 37, [1′-[(E)-3-(4-fluorophenyl)allyl]-5-(4-fluorophenyl)sulfanyl-spiro[indoline-3,4′-piperidine]-1-yl]-(2-methyl-4-pyridyl)methanone]	≤ 50	
O=C(c1ccnc(Cl)c1)N1CC2(CCN(C/C=C/c3ccc(Cl)cc3)CC2)c2cc(Sc3ccc(F)cc3)ccc21 [Compound 26, [1′-[(E)-3-(4-chlorophenyl)allyl]-5-(4-fluorophenyl)sulfanyl-spiro[indoline-3,4′-piperidine]-1-yl]-(2-chloro-4-pyridyl)methanone]	≤ 50	
Cc1ccc(/C=C/CN2CCC3(CC2)CN(C(=O)c2cc(C)nc(Cl)c2)c2ccc(Sc4ccc(F)cc4)cc23)c(C)c1 [Compound 21, (2-chloro-6-methyl-4-pyridyl)-[1′-[(E)-3-(2,4-dimethylphenyl)allyl]-5-(4-fluorophenyl)sulfanyl-spiro[indoline-3,4′-piperidine]-1-yl]methanone]	≤ 50	
Cc1cc(C(=O)N2CC3(CCN(C/C=C/c4ccc(Cl)cc4Cl)CC3)c3cc(Sc4ccc(F)cc4)ccc32)cc(Cl)n1 [Compound 30, (2-chloro-6-methyl-4-pyridyl)-[1′-[(E)-3-(2,4-dichlorophenyl)allyl]-5-(4-fluorophenyl)sulfanyl-spiro[indoline-3,4′-piperidine]-1-yl]methanone]	≤ 50	
Cc1cc(C(=O)N2CC3(CCN(C/C=C/c4ccc(F)cc4F)CC3)c3cc(Sc4ccc(F)cc4)ccc32)ccn1 [Compound 40, [1′-[(E)-3-(2,4-difluorophenyl)allyl]-5-(4-fluorophenyl)sulfanyl-spiro[indoline-3,4′-piperidine]-1-yl]-(2-methyl-4-pyridyl)methanone]	≤ 50	
Cc1cc(C(=O)N2CC3(CCN(C/C=C/c4ccc(Cl)c(Cl)c4)CC3)c3cc(Sc4ccc(F)cc4)ccc32)cc(Cl)n1 [Compound 24, (2-chloro-6-methyl-4-pyridyl)-[1′-[(E)-3-(3,4-dichlorophenyl)allyl]-5-(4-fluorophenyl)sulfanyl-spiro[indoline-3,4′-piperidine]-1-yl]methanone]	≤ 50	
O=C(c1ccnc(Cl)c1)N1CC2(CCN(C/C=C/c3ccc(F)cc3)CC2)c2cc(Sc3ccc(F)cc3)ccc21 [Compound 35, (2-chloro-4-pyridyl)-[1′-[(E)-3-(4-fluorophenyl)allyl]-5-(4-fluorophenyl)sulfanyl-spiro[indoline-3,4′-piperidine]-1-yl]methanone]	≤ 50	
Cc1cc(C(=O)N2CC3(CCN(C/C=C/c4ccc(F)cc4)CC3)c3cc(Sc4ccc(F)cc4)ccc32)cc(Cl)n1 [Compound 36, (2-chloro-6-methyl-4-pyridyl)-[1′-[(E)-3-(4-fluorophenyl)allyl]-5-(4-fluorophenyl)sulfanyl-spiro[indoline-3,4′-piperidine]-1-yl]methanone]	≤ 50	
Cc1cc(C(=O)N2CC3(CCN(C/C=C/c4ccc(F)c(F)c4)CC3)c3cc(Sc4ccc(F)cc4)ccc32)ccn1 [Compound 34, [1′-[(E)-3-(3,4-difluorophenyl)allyl]-5-(4-fluorophenyl)sulfanyl-spiro[indoline-3,4′-piperidine]-1-yl]-(2-methyl-4-pyridyl)methanone]	≤ 50	
Cc1ccc(/C=C/CN2CCC3(CC2)CN(C(=O)c2cc(C)nc(Cl)c2)c2ccc(Sc4ccc(F)cc4)cc23)cc1 [Compound 18, (2-chloro-6-methyl-4-pyridyl)-[5-(4-fluorophenyl)sulfanyl-1′-[(E)-3-(p-tolyl)allyl]spiro[indoline-3,4′-piperidine]-1-yl]methanone]	≤ 50	
Cc1cc(C(=O)N2CC3(CCN(C/C=C/c4ccc(Cl)cc4)CC3)c3cc(Sc4ccc(F)cc4)ccc32)cc(Cl)n1 [Compound 27, (2-chloro-6-methyl-4-pyridyl)-[1′-[(E)-3-(4-chlorophenyl)allyl]-5-(4-fluorophenyl)sulfanyl-spiro[indoline-3,4′-piperidine]-1-yl]methanone]	≤ 50	
Cc1ccc(/C=C/CN2CCC3(CC2)CN(C(=O)c2ccnc(Cl)c2)c2ccc(Sc4ccc(F)cc4)cc23)c(C)c1 [Compound 20, (2-chloro-4-pyridyl)-[1′-[(E)-3-(2,4-dimethylphenyl)allyl]-5-(4-fluorophenyl)sulfanyl-spiro[indoline-3,4′-piperidine]-1-yl]methanone]	≤ 50	
Cc1cc(C(=O)N2CC3(CCN(C/C=C/c4ccccc4)CC3)c3cc(Sc4ccc(F)cc4)ccc32)ccn1 [Compound 13, [1′-[(E)-cinnamyl]-5-(4-fluorophenyl)sulfanyl-spiro[indoline-3,4′-piperidine]-1-yl]-(2-methyl-4-pyridyl)methanone]		≤ 50
O=C(c1ccnc(Cl)c1)N1CC2(CCN(C/C=C/c3ccc(F)cc3F)CC2)c2cc(Sc3ccc(F)cc3)ccc21 [Compound 38, (2-chloro-4-pyridyl)-[1′-[(E)-3-(2,4-difluorophenyl)allyl]-5-(4-fluorophenyl)sulfanyl-spiro[indoline-3,4′-piperidine]-1-yl]methanone]	≤ 50	
Cc1ccc(/C=C/CN2CCC3(CC2)CN(C(=O)c2ccnc(Cl)c2)c2ccc(Sc4ccc(F)cc4)cc23)cc1 [Compound 17, (2-chloro-4-pyridyl)-[5-(4-fluorophenyl)sulfanyl-1′-[(E)-3-(p-tolyl)allyl]spiro[indoline-3,4′-piperidine]-1-yl]methanone]	≤ 50	
Cc1cc(C(=O)N2CC3(CCN(C/C=C/c4ccc(Cl)cc4)CC3)c3cc(Sc4ccc(F)cc4)ccc32)ccn1 [Compound 28, [1′-[(E)-3-(4-chlorophenyl)allyl]-5-(4-fluorophenyl)sulfanyl-spiro[indoline-3,4′-piperidine]-1-yl]-(2-methyl-4-pyridyl)methanone]	≤ 50	
Cc1cc(C(=O)N2CC3(CCN(C/C=C/c4ccc(Cl)cc4Cl)CC3)c3cc(Sc4ccc(F)cc4)ccc32)ccn1 [Compound 31, [1′-[(E)-3-(2,4-dichlorophenyl)allyl]-5-(4-fluorophenyl)sulfanyl-spiro[indoline-3,4′-piperidine]-1-yl]-(2-methyl-4-pyridyl)methanone]	≤ 50	
Cc1cc(C(=O)N2CC3(CCN(C/C=C/c4ccccc4)CC3)c3cc(Sc4ccc(F)cc4)ccc32)cc(Cl)n1 [Compound 12, (2-chloro-6-methyl-4-pyridyl)-[1′-[(E) -cinnamyl]-5-(4-fluorophenyl)sulfanyl-spiro[indoline-3,4′-piperidine]-1-yl]methanone]		≤ 50
Cc1cc(C(=O)N2CC3(CCN(C/C=C/c4ccc(F)cc4F)CC3)c3cc(Sc4ccc(F)cc4)ccc32)cc(Cl)n1 [Compound 39, (2-chloro-6-methyl-4-pyridyl)-[1′-[(E)-3-(2,4-difluorophenyl)allyl]-5-(4-fluorophenyl)sulfanyl-spiro[indoline-3,4′-piperidine]-1-yl]methanone]	≤ 50	
O=C(c1ccnc(Cl)c1)N1CC2(CCN(C/C=C/c3ccc(Cl)c(Cl)c3)CC2)c2cc(Sc3ccc(F)cc3)ccc21 [Compound 23, (2-chloro-4-pyridyl)-[1′-[(E)-3-(3,4-dichlorophenyl)allyl]-5-(4-fluorophenyl)sulfanyl-spiro[indoline-3,4′-piperidine]-1-yl]methanone]	≤ 50	
